Data from patent US11884649B2, “IRE1α inhibitors and uses thereof” (The Regents of the University of California, priority 2020, dated 2024).

What was measured:
[1] = test system: RIDD (IRE1α-dependent mRNA decay); assay: Real-time PCR of RIDD mRNA targets in INS-1 cells overexpressing IRE1α (Dox); assay type: cell-based, rat; settings: 3, 10 μM for 1 hour, then Dox (5 ng/mL) for 24 hours
Method: (§1) RNA Isolation, Quantitative Real-Time PCR, and Primers
(§2) INS-1 or isogenic IRE1α-overexpressing INS-1 cells were plated onto Poly-D-Lysine coated tissue culture plate and grown for 48 hrs. Inhibitors or DMSO were added to the media and incubated for 1 hour at 37° C. with 5% CO2 prior to addition of ER stress agents or Dox as indicated. RNA was isolated from whole cells using either QIAGEN RNeasy Mini kits or Trizol (Invitrogen) and reverse transcribed as above to obtain total cDNA. Then, XBP-1 primers were used to amplify an XBP-1 amplicon spanning the 26 nt intron from the cDNA samples in a regular 3-step PCR. Thermal cycles were: 5 min at 95° C., 30 cycles of 30 s at 95° C., 30 s at 60° C., and 1 min at 72° C., followed by 72° C. for 15 min, and hold at 4° C. Primers used for XBP-1 mRNA splicing were as follows: sense primer XBP1.3 S (5′ […]-3′ (SEQ ID NO:2)) and antisense primer XBP1.2AS (5′-[…]-3′ (SEQ ID NO:3)). PCR fragments were then digested by PstI, resolved on 3% agarose gels, stained with EtBr and quantified by densitometry using ImageJ (NIH). For standard mRNA detection, generally […] total RNA was reverse transcribed using the QuantiTect Reverse Transcription Kit (QIAGEN). For qPCR, we used SYBR green (QIAGEN) and StepOnePlus Real-Time PCR System (Applied Biosystems). Thermal cycles were: 5 min at 95° C., 40 cycles of 15 sec at 95° C., 30 sec at 60° C. Gene expression levels were normalized to Beta Actin. Primers used for qPCR of RIDD targets were as follows: Beta Actin Fwd: 5′-[…]-3′ (SEQ ID NO:4), Beta Actin Rev: 5′-[…]-3′ (SEQ ID NO:5), Insulin 1 Fwd: 5′-GTCCTCTGGGAGCCCAAG-3′ (SEQ ID NO:6), Insulin 1 Rev: 5′-ACAGAGCCTCCACCAGG-3′ (SEQ ID NO:7), Insulin 2 Fwd: 5′-ATCCTCTGGGAGCCCCGC-3′ (SEQ ID NO:8), Insulin 2 Rev: 5′-AGAGAGCTTCCACCAAG-3′ (SEQ ID NO:9), Blos1 Fwd: 5′-[…]-3′ (SEQ ID NO:10), and Blos1 Rev: 5′-[…]-3′ (SEQ ID NO:11).
Real-Time PCR (Q-PCR) used SYBR green and Step OnePlus Real-Time PCR System (Applied Biosystems). Thermal cycles were: 5 min at 95° C., 40 cycles of 15 s at 95° C., 30 s at 60° C. Gene expression levels were normalized to GAPDH. Q-PCR Sense/antisense primers used: Rat GAPDH, 5′-[…]-3′ (SEQ ID NO:14) and 5′-[…]-3′ (SEQ ID NO:15); Rat Ins1, 5′-GTCCTCTGGGAGCCCAAG-3′ (SEQ ID NO:6) and 5′-ACAGAGCCTCCACCAGG-3′ (SEQ ID NO:7); Rat Pdia4, 5′-CGTCTCGCCCTGATTCGT-3′ (SEQ ID NO:16) and 5′-[…]-3′ (SEQ ID NO:17); Rat Blos1, 5′-[…]-3′ (SEQ ID NO:18) and 5′-TGTCCAGTTCGATGCTCCG-3′ (SEQ ID NO:19).
Real-time PCR for FIGS. 34A-34F: Real-Time PCR (Q-PCR) used SYBR green and Step OnePlus Real-Time PCR System (Applied Biosystems). Thermal cycles were: 5 min at 95° C., 40 cycles of 15 s at 95° C., 30 s at 60° C. Gene expression levels were normalized to GAPDH. Q-PCR Sense/antisense primers used: Rat GAPDH, 5′-[…]-3′ (SEQ ID NO:20) and 5′-[…]-3′ (SEQ ID NO:21); Rat Ins1, 5′-GTCCTCTGGGAGCCCAAG-3′ (SEQ ID NO:6) and 5′-ACAGAGCCTCCACCAGG-3′ (SEQ ID NO:7); Rat Ins2, 5′-ATCCTCTGGGAGCCCCGC-3′ (SEQ ID NO:8) and 5′-AGAGAGCTTCCACCAAG-3′ (SEQ ID NO:9); Rat Pdia4, 5′-[…]-3′(SEQ ID NO:22) and 5′-[…]-3′ (SEQ ID NO:23); Rat Blos1, 5′-[…]-3′ (SEQ ID NO:18) and 5′-TGTCCAGTTCGATGCTCCG-3′ (SEQ ID NO:19).

IRE1α* = target: T1, IRE1α* (Homo sapiens, UniProt O75460); assay: In vitro kinase activity assay (IRE1α kinase inhibition); assay type: biochemical; settings: IRE1α kinase inhibition; read-out: IC50 IRE1a
T1 construct: human IRE1α (residues 547-977, IRE1α*) was expressed in SF9 insect cells; His6 (N); made in house; host or cells: Sf9 insect cells (Bac-to-Bac baculovirus)
T1 sequence (O75460 547-977): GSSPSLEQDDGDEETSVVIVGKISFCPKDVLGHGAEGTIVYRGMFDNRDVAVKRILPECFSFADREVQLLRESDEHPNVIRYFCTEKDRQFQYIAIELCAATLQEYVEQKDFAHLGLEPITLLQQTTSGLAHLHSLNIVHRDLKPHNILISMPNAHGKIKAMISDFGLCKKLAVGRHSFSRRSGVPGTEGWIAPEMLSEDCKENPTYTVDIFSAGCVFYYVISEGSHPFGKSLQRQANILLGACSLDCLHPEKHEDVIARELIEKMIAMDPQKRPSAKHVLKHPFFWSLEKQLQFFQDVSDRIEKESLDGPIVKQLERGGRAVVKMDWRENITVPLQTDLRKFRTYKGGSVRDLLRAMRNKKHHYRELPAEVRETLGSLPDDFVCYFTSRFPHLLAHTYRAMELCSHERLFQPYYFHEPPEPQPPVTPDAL
Method: A construct containing the cytosolic kinase and RNase domains of human IRE1α (residues 547-977, IRE1α*) was expressed in SF9 insect cells by using the Bac-to-Bac baculovirus expression system (Invitrogen) with a His6 tag at the N-terminus and purified with a nickel-nitriloacetic acid (Qiagen) column. To generate dP-IRE1α*, we removed basal phosphorylation sites by incubating IRE1α* with λ-PPase (New England Biolabs) at a molar ratio of 5:1 (IRE1α*: λ-PPase) in 50 mM HEPES pH 7.5, 100 mM NaCl, 1 mM MnCl2, 2 mM dithiothreitol (DTT) and 0.01% Brij 35 detergent (v/v) overnight at 4° C. Dephosphorylation was verified through western blotting using a universal phospho-protein detection agent (biotin-pIMAGO (Tymora Analytical Operations, Cat. No.: FL800) and imaged using a streptavidin-linked fluorophore.
In Vitro Kinase Activity Assay
Inhibitors (initial concentration of 10 or 60 μM, three-fold serial dilutions) were incubated with IRE1α* in cleavage buffer (20 mM HEPES, 0.05% Triton X-100 (v/v), 50 mM KCl, 1 mM MgCl2, 1 mM DTT, pH 7.5) for 30 min, followed by incubation with 10 μCi [γ^32P] ATP (3,000 Ci mmol^−1, PerkinElmer) at 23° C. for 3 hours. Samples were then spotted onto glass fiber paper (Easytab-C Glass Fiber Filter Paper, Perkin Elmer) and washed in twice with 0.5% phosphoric acid and autoradiographed using a GE Typhoon FLA 9000 Imager. Blots were quantitated using ImageQuant software. The percent inhibition was quantified by setting the background (no kinase well) as 0 and standardizing to IRE1α* without compound treatment (IRE1α*+DMSO). Dose-response curves were fit using “one-site fit log IC50” parameter using GraphPad Prism analysis software.
Compound Characterization (IC50 IRE1α Kinase Inhibition)

XBP1 mRNA splicing = XBP1 mRNA splicing in INS-1 cells conditionally overexpressing IRE1α (Dox); assay type: cell-based, rat; settings: 3, 10 μM for 1 hour, then Dox (1 μg/mL) for 4 hours
Method: as §1, §2
RNA was extracted using Trizol (Invitrogen), DNaseI treated, and cDNA products encompassing the intron amplified by QuantiTect Reverse Transcription Kit (Qiagen). sense Primer rXBP Forward (5′-[…]-3′ (SEQ ID NO:12)) and antisense primer rXBP Reverse (5′-[…]-3′ (SEQ ID NO:13)) were used. PCR fragments were digested by PstI, resolved on 3% agarose gels, stained with EtBr, and quantified by densitometry.
XBP1 splicing for FIGS. 33A-33F: RNA was extracted using Trizol (Invitrogen), cDNA products encompassing the intron amplified by QuantiTect Reverse Transcription Kit (Qiagen). Sense Primer rXBP splicing Forward (5′-[…]-3′ (SEQ ID NO:12)) and antisense primer rXBP splicing Reverse (5′-[…]-3′ (SEQ ID NO:13)) were used. PCR fragments were digested by PstI, resolved on 3% agarose gels, stained with EtBr, and quantified by densitometry.

SMILES | RIDD mRNA targets (Ins1, Ins2, Pdia4) [1] | IC50 (IRE1α*) | % spliced XBP1 amplicons (XBP1 mRNA splicing)
Cc1cc(NS(=O)(=O)CC2CC2)c2ccccc2c1Oc1ncccc1-c1ccnc(N[C@@H]2CNC[C@@H](F)C2)n1 [LBC-409, 1-cyclopropyl-N-(4-((3-(2-(((3S,5S)-5-fluoropiperidin-3-yl)amino)pyrimidin-4-yl)pyridin-2-yl)oxy)-3-methylnaphthalen-1-yl)methanesulfonamide] | block RIDD | 7.4 nM | do not suppress XBP mRNA splicing
Cc1cc(NS(=O)(=O)CCC(F)(F)F)c2ccccc2c1Oc1ncccc1-c1ccnc(N[C@@H]2CNC[C@@H](F)C2)n1 [LBC-410, 3,3,3-trifluoro-N-(4-((3-(2-(((3S,5S)-5-fluoropiperidin-3-yl)amino)pyrimidin-4-yl)pyridin-2-yl)oxy)-3-methylnaphthalen-1-yl)propane-1-sulfonamide] | block RIDD | 3.4 nM | suppresses XBP1 splicing
Cc1cc(NS(=O)(=O)C2CCC2)c2ccccc2c1Oc1ncccc1-c1ccnc(N[C@@H]2CNC[C@@H](F)C2)n1 [LBC-411, N-(4-((3-(2-(((3S,5S)-5-fluoropiperidin-3-yl)amino)pyrimidin-4-yl)pyridin-2-yl)oxy)-3-methylnaphthalen-1-yl)cyclobutanesulfonamide] | block RIDD | 4.4 nM | do not suppress XBP mRNA splicing
Cc1cc(NS(=O)(=O)C2CC2)c2ccccc2c1Oc1ncccc1-c1ccnc(N[C@@H]2CNC[C@@H](F)C2)n1 [LBC-412, N-(4-((3-(2-(((3S,5S)-5-fluoropiperidin-3-yl)amino)pyrimidin-4-yl)pyridin-2-yl)oxy)-3-methylnaphthalen-1-yl) cyclopropane sulfonamide] | block RIDD | 13 nM | do not suppress XBP mRNA splicing
Cc1cc(NS(=O)(=O)C2(C)CC2)c2ccccc2c1Oc1ncccc1-c1ccnc(N[C@@H]2CNC[C@@H](F)C2)n1 [LBC-413, N-(4-((3-(2-(((3S,5S)-5-fluoropiperidin-3-yl)amino)pyrimidin-4-yl)pyridin-2-yl)oxy)-3-methylnaphthalen-1-yl)-1-methylcyclopropane-1-sulfonamide] | block RIDD | 32 nM | do not suppress XBP mRNA splicing
